Measurements published in patent publication US20210315837A1, “CANNABINOIDS FOR THE TREATMENT OF GRAM-POSITIVE INFECTIONS INCLUDING ANTIBIOTIC-RESISTANT BACTERIAL STRAINS” (priority 2018, published 2021).
In brackets after ≈: the same amount, converted by molar mass. Several values for one entry are separate records, joined by “and”; a condition that tells them apart may be missing. Equal values may be shown once. Read-outs that look alike come from different tables or passages of the source.

Legend:
MRS 33591 = test: IC50, MIC and MBC against MRS 33591; assay type: cell-based, Staphylococcus aureus
Procedure: (§1) As used herein, the term “minimum inhibitory concentration (MIC)” refers to the lowest concentration of an antimicrobial agent that will inhibit the visible growth of a microorganism after overnight incubation. MIC values against bacteria may be determined by standard methods. See also P. A. Wayne, Methods for Dilution Antimicrobial Tests for Bacteria that Grow Aerobically; Approved Standard, Ninth Edition, 2012, CLSI Document M07-A9, Vol. 32 No. 2, which is incorporated by reference herein in its entirety.

S. aureus 29213 = test: IC50, MIC and MBC against S. aureus 29213; assay type: cell-based
Procedure: As used herein, the term “minimum inhibitory concentration (MIC)” refers to the lowest concentration of an antimicrobial agent that will inhibit the visible growth of a microorganism after overnight incubation. MIC values against bacteria may be determined by standard methods.

[1] = tested on: MRS 1708 (Mupirocin-resistant); test: IC50, MIC and MBC against MRS 1708 (Mupirocin-resistant); assay type: cell-based, Staphylococcus aureus; set-up: AMC: unit not given here
Procedure: as §1

MRS USA 400 = test: IC50, MIC and MBC against MRS USA 400; assay type: cell-based, Staphylococcus aureus
Procedure: as §1

MRS USA 300 = test: IC50, MIC and MBC against MRS USA 300; assay type: cell-based, Staphylococcus aureus
Procedure: as §1

[2] = Staphylococcus aureus, S. aureus 29213, tested Conc. in μg/mL, read-out: MIC
[3] = MRS USA 400, tested Conc. in μg/mL
[4] = MRS USA 300, tested Conc. in μg/mL
[5] = MRS 33591, tested Conc. in μg/mL
[6] = S. aureus 29213, tested Conc. in μg/mL
[7] = Mupirocin-resistant MRS (Table 11)
[8] = S. aureus 29213, tested Conc. in μg/mL, NA given without definition
[9] = Mupirocin-resistant MRS (Table 11), in µg/mL

Molecule | IC50 (MRS 33591; Staphylococcus aureus) | MIC (MRS 33591; Staphylococcus aureus) | IC50 (S. aureus 29213; Staphylococcus aureus, 29213) [µg/mL] | IC50 ([1]; Staphylococcus aureus) | MIC (MRS USA 400; [3]) | IC50 (MRS USA 400; Staphylococcus aureus, USA400) | MIC (MRS USA 300; [4]) | IC50 (MRS USA 300; Staphylococcus aureus, USA300) | MBC (MRS 33591; [5]) | MBC (S. aureus 29213; [6]) | AMC [1, 7] | MBC (MRS USA 400; [3]) | IC50 (MRS 33591; [5]) | MIC (MRS 33591; [5]) | MIC (S. aureus 29213; [6]) | IC50 (S. aureus 29213; [8]) | IC50 [1, 9] | IC50 (MRS USA 400; [3]) | IC50 (MRS USA 300; [4]) | further results
CCCCCc1cc(O)c(C/C=C(\C)CCC=C(C)C)c(O)c1C(=O)O [Cannabigerolic acid] | 2.29 µg/mL | 13.3 µg/mL | 2.05 (≈ 5.69 µM) | 1.55 ± 0.27 µg/mL | 5 ± 0 | 1.67 µg/mL | 8.33 | 1.52 µg/mL |  |  |  |  |  |  |  |  |  |  |  | MIC (S. aureus 29213; [2]): 8.33 µg/mL (≈ 23.1 µM)
O=C(O)c1cn(C2CC2)c2cc(N3CCNCC3)c(F)cc2c1=O [Ciprofloxacin, reference compound] | 0.12 µg/mL | 0.67 µg/mL | 0.12 (≈ 0.362 µM) |  |  |  | 0.5 ± 0 | 0.13 µg/mL | 0.67 | 0.67 |  |  |  |  |  |  |  |  |  | MIC (S. aureus 29213; Staphylococcus aureus, 29213): 0.5 µg/mL (≈ 1.51 µM); MBC (MRS USA 300; [4]): 0.67
COc1cccc(OC)c1C(=O)N[C@@H]1C(=O)N2[C@@H]1SC(C)(C)[C@@H]2C(=O)O [Methicillin, reference compound] | > 131000 nM | > 131 µM | 0.65 (≈ 1.71 µM) | 7.31 µM and 2.78 µg/mL | 25 ± 0 | 8.78 µM and 3.34 µg/mL |  | 70.2 µM and 26.7 µg/mL |  |  | 25 ± 0 | 41.67 |  |  |  |  |  |  |  | MBC (MRS 33591; Staphylococcus aureus): > 131 µM; MIC (S. aureus 29213; Staphylococcus aureus, 29213): 2.6 ± 0.9 µg/mL (≈ 6.83 µM); MBC ([1]; Staphylococcus aureus): 65.7 µM (≈ 25 µg/mL); MIC ([1]; Staphylococcus aureus): 65.7 µM (≈ 25 µg/mL); MBC (MRS USA 400; Staphylococcus aureus, USA400): 110 ± 37.9 µM (≈ 41.7 µg/mL); MIC (MRS USA 400; Staphylococcus aureus, USA400): 65.7 µM (≈ 25 µg/mL); MBC (MRS USA 300; Staphylococcus aureus, USA300): > 131 µM; MIC (MRS USA 300; Staphylococcus aureus, USA300): > 131 µM
C/C(=C\C(=O)OCCCCCCCCC(=O)O)C[C@@H]1OC[C@H](C[C@@H]2O[C@H]2[C@@H](C)[C@H](C)O)[C@@H](O)[C@H]1O [Mupirocin, reference compound] | 80 nM and 0.04 µg/mL | 0.44 µM and 0.22 µg/mL | 0.04 (≈ 0.0799 µM) | > 100000 nM | 0.16 ± 0 | 80 nM and 0.04 µg/mL | 0.23 | 80 nM and 0.04 µg/mL | 2.08 | 1.25 ± 0 |  | 0.94 ± 0.44 |  |  |  |  |  |  |  | MBC (MRS 33591; Staphylococcus aureus): 4.15 ± 2.6 µM (≈ 2.08 µg/mL); MIC (S. aureus 29213; [2]): 0.39 µg/mL (≈ 0.779 µM); MBC ([1]; Staphylococcus aureus): > 100 µM; MIC ([1]; Staphylococcus aureus): > 100 µM; MBC (MRS USA 400; Staphylococcus aureus, USA400): 1.88 ± 0.88 µM (≈ 0.941 µg/mL); MIC (MRS USA 400; Staphylococcus aureus, USA400): 0.32 µM (≈ 0.16 µg/mL); MBC (MRS USA 300; Staphylococcus aureus, USA300): 3.76 ± 1.76 µM (≈ 1.88 µg/mL); MIC (MRS USA 300; Staphylococcus aureus, USA300): 0.46 ± 0.22 µM (≈ 0.23 µg/mL)
CCCCCc1cc(O)c(CCC(C)CCCC(C)C)c(O)c1 (centres unmarked) [Tetrahydro CBG, Tetrahydrocannabigerol] |  |  |  |  | 2.5 ± 0 |  | 2.08 |  | 3.75 |  | 3.33 ± 1.44 | 10 ± 0 | 0.67 ± 0 | 1.25 ± 0 | 1.25 ± 0 | 0.7 | 0.83 ± 0.2 | 1.12 | 0.82 ± 0.1 | MBC (MRS 33591; MRS 33591): 11.7 ± 5.52 µM (≈ 3.75 µg/mL); MIC (MRS 33591; MRS 33591): 3.9 ± 0 µM; IC50 (MRS 33591; MRS 33591, read-out: IC50): 2090 nM; MBC ([1]; MRS 1708 (Mupirocin-resistant)): 10.39 ± 4.49 µM (≈ 3.33 µg/mL); MIC ([1]; MRS 1708 (Mupirocin-resistant)): 5.21 ± 2.25 µM (≈ 1.67 µg/mL); IC50 ([1]; MRS 1708 (Mupirocin-resistant), read-out: IC50): 2590 ± 620 nM; MBC (MRS USA 400; MRS USA 400): 31.2 ± 0 µM (≈ 10 µg/mL); MIC (MRS USA 400; MRS USA 400): 7.8 ± 0 µM (≈ 2.5 µg/mL); IC50 (MRS USA 400; MRS USA 400, read-out: IC50): 3490 ± 500 nM; MBC (MRS USA 300; MRS USA 300): >62 µM; MIC (MRS USA 300; MRS USA 300): 6.49 ± 2.25 µM (≈ 2.08 µg/mL); IC50 (MRS USA 300; MRS USA 300, read-out: IC50): 2560 ± 310 nM
CCCCCc1cc(O)c2c(c1)OC(C)(C)[C@@H]1CC=C(C)C[C@@H]21 [Δ8-Tetrahydrocannabinol] |  |  |  |  | 10 ± 0 |  | 5 ± 0 |  | 10 ± 0 |  | 10 ± 8.66 |  | 1.43 | 2.5 ± 0 | 2.5 ± 0 | 1.47 | 1.82 ± 0.08 | 2.55 | 1.91 | 
Methyl tetrahydrocannabigerol |  |  |  |  |  |  |  |  |  | 10 ± 0 | 8.33 ± 2.89 |  | 1.83 and 1.39 |  |  | 1.8 and 1.53 |  | 1.91 and 1.42 | 1.76 and 1.26 | 
Tetrahydrocannabigerolic acid |  |  |  |  | 13.33 |  | 20 ± 0 |  |  |  |  |  | 4.33 | 20 ± 0 | 20 ± 0 | 3.67 | 3.24 ± 0.13 | 2.79 | 2.98 | 
